Test results: US7501233B2, “Method for measuring the vitality of cells” (priority 2000, dated 2009)
*1 amine or outer side, *2 acyl side, *3 side chain or, on linkers, in order; H or OH if unused. Where a SMILES comes first, the peptide text is derived from it. Bridges are numbered along the chain shown (N, C = ends). Roman numbers before positions name the chains, in order. [ ]: non-standard residue; d: D form. Actinocin(9to1) = Cc1c2oc3c(C)ccc(C(=O)[*:1])c3nc-2c(C(=O)[*:2])c(N)c1=O; NMeV = CN[C@H](C(=O)O)C(C)C; Sar = CNCC(=O)O

Test system: Jurkat cells
Experiment: Electrorotation measurement (ER spectra) of single cells in a microelectrode field cage
Type: cell-based
Excerpt: An instrument already described by C. C. Reichle, T. Schnelle, T. Müller, T. Leya and G. Fuhr (2000, A new microsystem for automatic electrorotation measurements using laser tweezers, Biochimica et Biophysica Acta 1459, p. 218- 229), a combination of dielectrophoretical field cages with optical traps, especially laser tweezers, was used for determination of the electrorotation spectra (FIG. 6). […] Reichle and G. Fuhr 2000, Combined dielectrophoretic field cages and laser tweezers for electrorotation, Applied Physics B, Lasers and Optics, Springer Verlag.
Jurkat T lymphoma cells and U937 monocytic cells were cultivated in RPMI-1640 medium supplemented with 10% fetal calf serum and 100 IU/ml penicillin as well as 100 IU/ml streptomycin. Apoptosis was triggered by addition of 5 μg/ml actinomycin D in a culture that was seeded the day before with 2×10^5 cells per ml. The classical morphological changes during apoptosis were documented photographically (see FIG. 1). At different times, an aliquot was taken from the culture, added to a mixture of isotonic phosphate buffer (PBS, D8662 from SIGMA with calcium and magnesium) and, if desired, 0.3 M inositol with correspondingly indicated electrical conductivity, and introduced in a device for measurement of the electrorotation in a microelectrode system. As a control, untreated Jurkat cells were used (FIG. 5). For comparison, electrorotation spectra (ER spectra) were determined from ionomycin-treated cells ([…]) as well as from cells the plasma membrane of which had been damaged by increasing the voltage from 4 V to 6.8 V or a treatment with optical tweezers with 30-60 mW (2.8 A of the 1 W Nd:YAG laser, TEM00, 1064 nm, LD 3000i, Laser Quantum Ltd., Manchester, UK, P.A.L.M. System) for 15 minutes. For this, the cells were transferred individually to the center of the quadrupole or octupole of the microelectrode system. For this, optical tweezers with a power of approx. 30 mW were used in the indicated cases at the site of holding. The frequency of the cell rotation was measured either automatically or using a timer (FIG. 2). The uptake of propidium iodine (5 μm) in necrotically damaged cells or comparative measurements with vital and apoptotic cells (FIGS. 3 and 4) was measured by confocal nanofluorometry (Gradl, T. Müller, C. Reichle, T. Schnelle and G. Fuhr, 1999, Micro-Electrode Systems for Cell Analysis, European Journal of Cell Biology, Suppl. 49, Vol. 78; T. Schnelle, T. Müller, G. Gradl, S. G. Shirley and G. Fuhr, 2000, Dielectrophoretic manipulation of suspended submicron particles, ELECTROPHORESIS 2000, 21, p. 66-73).
The device for measurement of the electrorotation was attached to a fluorescence correlation spectrometer. The cells were made visible over a 40×W 1.2 NA lens. They were excited with 1.5 μW by a helium-neon laser with a wavelength of 543 nm and the radiated fluorescence was passed through a 585 DF 35 band pass filter over a 50 μm pinhole to a photodiode, with which the fluorescence photons were counted.

[1] = ionomycin-treated cell vs. untreated cell, PBS

SMILES | dielectric constant εω in the cell (ionomycin 10 μM, Jurkat cell in PBS, from fits of ER spectra, increase from 45 (untreated)) | conductivity σ (as sum of σ0, Δσ1 and Δσ2) in the cell (ionomycin 10 μM, approx. 5 min, Jurkat cell in PBS, from fits of ER spectra, increase from 0.77 (untreated)) | increase in the HF conductivity of the cytoplasm [1] | increase of the dielectric constant of the cytoplasm [1] | ratio of rotation speed at 10 MHz to rotation speed at 2.5 MHz (apoptotic Jurkat cell (actinomycin D, 4 hours), normal cell near 1, necrotic 0.6-0.8) | field frequency of highest rotation speed in ER spectrum (apoptotic Jurkat cell, 5 μg/ml actinomycin D for 4 hours (FIG. 2E), normal cell maximum around 2.5 MHz)
C[C@H](CCC(=O)O)C[C@H](C)C[C@H](C)C(=O)/C=C(\O)[C@H](C)C[C@H](C)C/C=C/[C@@H](C)[C@@H](O)[C@@H](C)[C@@H](O)C[C@@H]1CC[C@@](C)([C@H]2CC[C@@](C)([C@@H](C)O)O2)O1 [ionomycin, Ionomycin] | 75 | 1.15 s m^−1 | approx. 40% | more than 60% | – | –
Cc1c2oc3c(C)ccc(C(=O)N[C@@H]4C(=O)N[C@H](C(C)C)C(=O)N5CCC[C@H]5C(=O)N(C)CC(=O)N(C)[C@@H](C(C)C)C(=O)O[C@@H]4C)c3nc-2c(C(=O)N[C@@H]2C(=O)N[C@H](C(C)C)C(=O)N3CCC[C@H]3C(=O)N(C)CC(=O)N(C)[C@@H](C(C)C)C(=O)O[C@@H]2C)c(N)c1=O [actinomycin D, Actinomycin D] (I: T[dV]P[Sar][NMeV] / II: T[dV]P[Sar][NMeV]; ester I:1-I:C, II:1-II:C; linker I:N-II:N via Actinocin(9to1)) | – | – | – | – | 1.4 | approx. 10 MHz
